Experimental data: patent US9695155B2, “Herbicidal substituted pyrimidinyloxy benzene compounds” (E. I. DU PONT DE NEMOURS AND COMPANY, priority 2013, dated 2017)

Columns and labels:
bermudagrass = test: Test F preemergence; type: in vivo, Cynodon dactylon; conditions: 21 days, scale 0 to 100
Description: (§1) Seeds of plant species selected from bermudagrass (Cynodon dactylon), surinam grass (Brachiaria decumbens), large (Lg) crabgrass (Digitaria sanguinalis), crabgrass, naked (naked crabgrass, Digitaria nuda), foxtail, green (green foxtail, Setaria viridis), johnsongrass (Sorghum halepense), kochia (Kochia scoparia), morningglory (pitted morningglory, Ipomoea lacunosa), nutsedge, purple (purple nutsedge, Cyperus rotundus), ragweed (common ragweed, Ambrosia elatior), mustard, black (black mustard, Brassica nigra), guineagrass (Panicum maximum), dallisgrass (Paspalum dilatatum), barnyardgrass (Echinochloa crus-galli), sandbur (southern sandbur, Cenchrus echinatus), sowthistle (common sowthistle, Sonchus oleraceous), Italian ryegrass (Lolium multiflorum), signalgrass (broadleaf signalgrass, Brachiaria platyphylla), dayflower (Virginia (VA) dayflower, Commelina virginica), bluegrass (annual bluegrass, Poa annua), quackgrass (Elytrigia repens), mallow (common mallow, Malva sylvestris), buckwheat, wild (wild buckwheat, Polygonum convolvulus), leafy spurge (Euphorbia esula), chickweed (common chickweed, Stellaria media), wild poinsettia (Euphorbia heterophylla), and pigweed (Amaranthus retroflexus) were planted into a blend of loam soil and sand and treated preemergence with test chemicals formulated in a non-phytotoxic solvent mixture which included a surfactant.
(§2) Treated plants and controls were maintained in a greenhouse for 21 days, after which time all species were compared to controls and visually evaluated. Plant response ratings, summarized in Table F, are based on a scale of 0 to 100 where 0 is no effect and 100 is complete control. A dash (-) response means no test result.

sandbur = test: Test F preemergence; type: in vivo, Cenchrus echinatus; conditions: 21 days, scale 0 to 100
Description: as §1, §2

mallow = test: Test F preemergence; type: in vivo, Malva sylvestris; conditions: 21 days, scale 0 to 100
Description: as §1, §2

ragweed = test: Test E postemergence; type: in vivo, Ambrosia elatior
Description: Seeds of plant species selected from corn (Zea mays), soybean (Glycine max), velvetleaf (Abutilon theophrasti), lambsquarters (Chenopodium album), wild poinsettia (Euphorbia heterophylla), palmer pigweed (Amaranthus palmeri), waterhemp (common waterhemp, Amaranthus rudis), surinam grass (Brachiaria decumbens), large (Lg) crabgrass (Digitaria sanguinalis), Brazilian crabgrass (Digitaria horizontalis), fall panicum (Panicum dichotomiflorum), giant foxtail (Setaria faberii), green foxtail (Setaria viridis), goosegrass (Eleusine indica), johnsongrass (Sorghum halepense), ragweed (common ragweed, Ambrosia elatior), barnyardgrass (Echinochloa crus-galli), sandbur (southern sandbur, Cenchrus echinatus), arrowleaf sida (Sida rhombifolia), Italian ryegrass (Lolium multiflorum), dayflower (Virginia (VA) dayflower, Commelina virginica), field bindweed (Convolvulus arvensis), morningglory (Ipomoea coccinea), nightshade (eastern black nightshade, Solanum ptycanthum), kochia (Kochia scoparia), yellow nutsedge (Cyperus esculentus), cocklebur (common cocklebur, Xanthium strumarium), smartweed (ladysthumb smartweed, and hairy beggarticks (Bidens pilosa), were planted into a silt loam soil and treated preemergence with test chemicals formulated in a non-phytotoxic solvent mixture which included a surfactant.
At the same time, plants from these crop and weed species and also horseweed (Canada horseweed, Conyza canadensis), waterhemp_RES1, (ALS & Triazine resistant common waterhemp, Amaranthus rudis), and waterhemp_RES2, (ALS & HPPD resistant common waterhemp, Amaranthus rudis) were planted in pots containing Redi-Earth® planting medium (Scotts Company, 14111 Scottslawn Road, Marysville, Ohio 43041) comprising spaghnum peat moss, vermiculite, wetting agent and starter nutrients were treated with postemergence applications of test chemicals formulated in the same manner. Plants ranged in height from 2 to 18 cm for postemergence treatments (1- to 4-leaf stage). Treated plants and controls were maintained in a greenhouse for 14 to 21 days, after which time all species were compared to controls and visually evaluated. Plant response ratings, summarized in Table E, are based on a scale of 0 to 100 where 0 is no effect and 100 is complete control. A dash (-) response means no test result.

chickweed = test: Test D preemergence; type: in vivo, Stellaria media; conditions: for pest or weed control at 16 g/ha / pest or weed control at 31 g/ha / pest or weed control at 62 g/ha / pest or weed control at 125 g/ha: Stellaria media, pre-emergence; for pest or weed control at 16 g/ha: read-out: Plant response rating, Chickweed; for pest or weed control at 31 g/ha / pest or weed control at 62 g/ha / pest or weed control at 125 g/ha: scale 0-100, read-out: Plant response rating, Chickweed
Description: (§3) Seeds of plant species selected from bluegrass (annual bluegrass, Poa annua), blackgrass (Alopecurus myosuroides), canarygrass (littleseed canarygrass, Phalaris minor), chickweed (common chickweed, Stellaria media), galium (catchweed bedstraw, Galium aparine), bromegrass, downy (downy bromegrass, Bromus tectorum), field poppy (Papaver rhoeas), field violet (Viola arvensis), green foxtail (Setaria viridis), deadnettle (henbit deadnettle, Lamium amplexicaule), Italian ryegrass (Lolium multiflorum), kochia (Kochia scoparia), lambsquarters (Chenopodium album), oilseed rape (Brassica napus), pigweed (Amaranthus retroflexus), chamomile (scentless chamomile, Matricaria inodora), Russian thistle (Salsola kali), speedwell (bird's-eye speedwell, Veronica persica), spring barley (Hordeum vulgare), spring wheat (Triticum aestivum), wild buckwheat (Polygonum convolvulus), wild mustard (Sinapis arvensis), wild oat (Avena fatua), wild radish (Raphanus raphanistrum), windgrass (Apera spica-venti), winter barley (Hordeum vulgare), and winter wheat (Triticum aestivum) were planted into a silt loam soil and treated preemergence with test chemicals formulated in a non-phytotoxic solvent mixture which included a surfactant.
(§4) At the same time, these species were planted in pots containing Redi-Earth® planting medium (Scotts Company, 14111 Scottslawn Road, Marysville, Ohio 43041) comprising spaghnum peat moss, vermiculite, wetting agent and starter nutrients and treated with postemergence applications of the test chemicals formulated in the same manner. Plants ranged in height from 2 to 18 cm (1- to 4-leaf stage). Treated plants and controls were maintained in a controlled growth environment for 7 to 21 days after which time all species were compared to controls and visually evaluated. Plant response ratings, summarized in Table D, are based on a scale of 0 to 100 where 0 is no effect and 100 is complete control. A dash (-) response means no test result.

Italian ryegrass = test: Test D preemergence; type: in vivo, Lolium multiflorum; conditions: for pest or weed control at 16 g/ha / pest or weed control at 31 g/ha: read-out: Plant response rating, Ryegrass, Italian
Description: as §3, §4

wild radish = test: Test D postemergence; type: in vivo, Raphanus raphanistrum; conditions: for pest or weed control at 16 g/ha / pest or weed control at 31 g/ha / pest or weed control at 62 g/ha / pest or weed control at 125 g/ha: Raphanus raphanistrum, post-emergence; for pest or weed control at 16 g/ha: scale 0-100, read-out: Plant response rating, Radish, Wild; for pest or weed control at 31 g/ha / pest or weed control at 62 g/ha / pest or weed control at 125 g/ha: read-out: Plant response rating, Radish, Wild
Description: as §3, §4

[1] = 16 g ai/ha, scale 0 (no effect) to 100 (complete control)
[2] = Lolium multiflorum, pre-emergence, 16 g ai/ha, scale 0 (no effect) to 100 (complete control)
[3] = Lolium multiflorum, pre-emergence, 31 g ai/ha, scale 0 (no effect) to 100 (complete control)
[4] = Lolium multiflorum, pre-emergence, 125 g ai/ha, scale 0-100, read-out: Plant response rating, Ryegrass, Italian
[5] = 31 g ai/ha, scale 0 to 100 (0 no effect, 100 complete control)
[6] = 62 g ai/ha, scale 0 to 100 (0 no effect, 100 complete control)
[7] = 125 g ai/ha, scale 0 to 100 (0 no effect, 100 complete control)

Structure (SMILES) | Plant response rating, Bermudagrass (bermudagrass; 16 g ai/ha) | Plant response rating, Bermudagrass (bermudagrass; 31 g ai/ha) | Plant response rating, Bermudagrass (bermudagrass; 62 g ai/ha) | Plant response rating, Bermudagrass (bermudagrass; 125 g ai/ha) | Plant response rating, Bermudagrass (bermudagrass; 250 g ai/ha) | Plant response rating, Sandbur (sandbur; 16 g ai/ha) | Plant response rating, Sandbur (sandbur; 31 g ai/ha) | Plant response rating, Sandbur (sandbur; 62 g ai/ha) | Plant response rating, Sandbur (sandbur; 125 g ai/ha) | Plant response rating, Sandbur (sandbur; 250 g ai/ha) | Plant response rating, Mallow (mallow; 16 g ai/ha) | Plant response rating, Mallow (mallow; 31 g ai/ha) | Plant response rating, Mallow (mallow; 62 g ai/ha) | Plant response rating, Mallow (mallow; 125 g ai/ha) | Plant response rating, Mallow (mallow; 250 g ai/ha) | pest or weed control at 16 g/ha (chickweed; [1]) [%] | pest or weed control at 31 g/ha (chickweed; 31 g ai/ha) [%] | pest or weed control at 62 g/ha (chickweed; 62 g ai/ha) [%] | pest or weed control at 125 g/ha (chickweed; 125 g ai/ha) [%] | pest or weed control at 16 g/ha (Italian ryegrass; [2]) [%] | also measured
N#Cc1cccc(Oc2ncc(Cl)cn2)c1-n1cc(OC(F)F)cn1 [Compound 97] | 80 | 95 | 100 | 100 | 100 | 0 | 10 | 25 | 100 | 100 | 30 | 75 | 98 | 100 | 100 | – | – | – | – | – | –
Clc1cnc(Oc2cccc(Cl)c2-n2cc(I)cn2)nc1 [Compound 181] | – | – | – | – | – | – | – | – | – | – | – | – | – | – | – | – | – | – | – | – | Plant response rating, Ragweed (ragweed; Postemergence, 31 g ai/ha, scale 0 to 100): 25; Plant response rating, Ragweed (ragweed; Postemergence, 62 g ai/ha, scale 0 to 100): 30; Plant response rating, Ragweed (ragweed; Postemergence, 125 g ai/ha, scale 0 to 100): 50; Plant response rating, Ragweed (ragweed; postemergence, 16 g ai/ha, scale 0 to 100, 0 no effect, 100 complete control): 20
N#Cc1cccc(Oc2ncc(Cl)cn2)c1-n1cc(OCC(F)(F)F)cn1 [Compound 274, 3-[(5-chloro-2-pyrimidinyl)oxy]-2-[4-(2,2,2-trifluoroethoxy)-1H-pyrazol-1-yl]benzonitrile] | 85 | 100 | 100 | 100 | 100 | 5 | 20 | 70 | 95 | 100 | 98 | 98 | 98 | 100 | 100 | 60 | 85 | 100 | 100 | 0 | pest or weed control at 31 g/ha (Italian ryegrass; [3]): 0%; pest or weed control at 125 g/ha (Italian ryegrass; [4]): 70%; pest or weed control at 16 g/ha (wild radish; 16 g ai/ha): 70%; pest or weed control at 31 g/ha (wild radish; [5]): 70%; pest or weed control at 62 g/ha (wild radish; [6]): 70%; pest or weed control at 125 g/ha (wild radish; [7]): 90%
Fc1cccc(Oc2ncc(Cl)cn2)c1-n1cc(C(F)F)nn1 [Compound 141, 5-chloro-2-[2-[4-(difluoromethyl)-1H-1,2,3-triazol-1-yl]-3-fluorophenoxy]pyrimidine] | – | – | – | – | – | – | – | – | – | – | – | – | – | – | – | 100 | 100 | 100 | 100 | 35 | pest or weed control at 31 g/ha (Italian ryegrass; [3]): 55%; pest or weed control at 62 g/ha (Italian ryegrass; Lolium multiflorum, pre-emergence, 62 g ai/ha, scale 0-100, read-out: Plant response rating, Ryegrass, Italian): 70%; pest or weed control at 125 g/ha (Italian ryegrass; [4]): 75%; pest or weed control at 16 g/ha (wild radish; 16 g ai/ha): 90%; pest or weed control at 31 g/ha (wild radish; [5]): 95%; pest or weed control at 62 g/ha (wild radish; [6]): 100%; pest or weed control at 125 g/ha (wild radish; [7]): 100%
FCc1cccc(Oc2ncc(Cl)cn2)c1-n1cc(I)cn1 [Compound 245] | – | – | – | – | – | – | – | – | – | – | – | – | – | – | – | – | – | – | – | – | Plant response rating, Chickweed (chickweed; [1]): 55; Plant response rating, Chickweed (chickweed; 31 g ai/ha, scale 0-100): 85; Plant response rating, Chickweed (chickweed; 62 g ai/ha, scale 0-100): 100; Plant response rating, Chickweed (chickweed; 125 g ai/ha, scale 0-100): 100; Plant response rating, Ryegrass, Italian (Italian ryegrass; [1]): 15; Plant response rating, Ryegrass, Italian (Italian ryegrass; 31 g ai/ha, scale 0 (no effect) to 100 (complete control)): 15; Plant response rating, Ryegrass, Italian (Italian ryegrass; 125 g ai/ha, scale 0-100): 40; Plant response rating, Radish, Wild (wild radish; 16 g ai/ha, scale 0-100): 35; Plant response rating, Radish, Wild (wild radish; [5]): 45; Plant response rating, Radish, Wild (wild radish; [6]): 55; Plant response rating, Radish, Wild (wild radish; [7]): 85
